Reference: article PMC9869995, “Discovery of benzochromene derivatives first example with dual cytotoxic activity against the resistant cancer cell MCF-7/ADR and inhibitory effect of the P-glycoprotein expression levels” (Journal of Enzyme Inhibition and Medicinal Chemistry, 2023)

Assays:
[1] = target: T1, P-gp (Homo sapiens, UniProt P08183); experiment: Rhodamine 123 accumulation assay in MCF-7/ADR cells; type: cell-based; conditions: 4 h compound, then 5.25 μM Rho123 30 min
T1 construct: endogenous in cells; host or cells: MCF-7/ADR (Adriamycin-resistant human breast cancer cells)
Description: Furthermore, the reversion of P-gp mediated multidrug resistance may be achieved by down-regulation of P-gp expression and or inhibition of P-gp efflux function.
Briefly, resistant cancer cells were harvested, washed twice, and counted. […] of each well was measured using Spectramax Gemini fluorescence microplate reader (Molecular Devices, Sunnyvale, CA). The total content of Rhodamine in each sample was determined by comparison with a Rhodamine standard curve.

[2] = test system: P-gp; experiment: P-gp content in MCF-7/ADR cell lysate by ELISA; type: cell-based, human; conditions: MCF-7/ADR lysate; for %Reduction of P-gp expression / IC50: 48 h; for IC50 at 48 h: human, MCF-7/ADR cells (cell lysate)
Description: P-gp pumps multiple types of drugs out of the cell, using energy generated from adenosine triphosphate (ATP), and confers MDR on cancer cells. It is one of the noteworthy problems in malignant tumour clinical therapeutics. […].
The content of P-gp in the MCF-7/ADR cell lysates after incubation with varying conc. (12.5–100 µM) of tested compounds 4b, 4c, 4d, 4q, and 4w following exposure for 48 h. was determined using commercial human P-gp ELISA Kit (MBS2506188, MyBioSource Inc., San Diego, CA). Absorption was recorded at 450 nm with a Spectramax Gemini fluorescence microplate reader (Molecular Devices, Sunnyvale, CA).

[3] = test system: HepG-2; experiment: MTT cell viability assay, HepG-2; type: cell-based; conditions: Homo sapiens, HepG2, 24 h incubation, mean ± standard error
From the text: (§1) According to previous reports regarding the cytotoxic features of a numerous array of benzochromene scaffolds, compounds 4a − z have been elected to explore their cytotoxic ability against three tumour cell lines, including HCT-116 (colon cancer), MCF-7 (breast cancer), and HepG-2 (hepatocellular cancer), and employing the 3–(4,5-dimethylthiazol-2-yl)-2,5-diphenyl tetrazolium bromide (MTT) colorimetric assay as described in literature. Judges choice of such cell lines has been stimulated by the acknowledged antitumor performance of a substantial number of 1H-benzo[f]chromene and 4H-benzo[h]chromene molecules towards the asserted cell lines. […] Moreover, benzochromene derivatives with highly cytotoxic behaviour, 4a − d, 4g, 4i, 4k, 4n, 4q, 4 u, and 4w, are subjected to further inspection against ADR-resistant human breast cancer cells (MCF-7/ADR) and the two normal cell lines, HFL-1 and human diploid fibroblasts (WI-38). […] Also, the results are illustrated in Table 4.
(§2) The tumour cell lines MCF-7, HepG-2, and […] were obtained from the American Type Culture Collection (ATCC, Rockville, MD). The cells were grown on RPMI-1640 medium supplemented with 10% inactivated foetal calf serum and 50 µg/mL gentamycin. The cells were maintained at 37 °C in a humidified atmosphere with 5% CO2 and were subculture two to three times a week.
(§3) The cytotoxic activity was appraised, using the 3–(4,5-dimethylthiazol-2-yl)-2,5-diphenyl-tetrazolium bromide (MTT) colorimetric assay, as reported previously[57] and ELISA assay for MCF-7/ADR[75].

[4] = test system: HFL-1; experiment: Cytotoxicity against normal cell line HFL-1; type: cell-based; conditions: Homo sapiens, HFL1, 24 h, mean ± standard error
From the text: as §1, §3

[5] = test system: WI-38; experiment: Cytotoxicity against normal cell line WI-38; type: cell-based; conditions: Homo sapiens, 24 h, mean ± standard error
From the text: as §1, §3

[6] = test system: MCF-7/ADR; experiment: Cytotoxicity against ADR-resistant breast cancer cells; type: cell-based, human; conditions: 24 h exposure, mean ± standard error
From the text: as §1, §3

[7] = test system: HCT-116; experiment: MTT cell viability assay, HCT-116; type: cell-based; conditions: Homo sapiens, 24 h incubation, mean ± standard error
From the text: as §1, §3

[8] = test system: MCF-7; experiment: MTT cell viability assay, MCF-7; type: cell-based; conditions: Homo sapiens, MCF7, 24 h incubation, mean ± standard error
From the text: as §1, §2, §3

[9] = test system: MCF-7/ADR cells; experiment: Annexin V-FITC/PI apoptosis assay; type: cell-based, human; conditions: IC50 value, 24 h, untreated cells 2%
From the text: Several lines of evidence indicate that many anticancer compounds exerted their effects by blocking the cell cycle progression, by inducing apoptosis, or the combined effect of both[67]. Also, P-gp inhibits apoptosis by preventing the release of cytochrome c which is mediated by the intrinsic mitochondrial pathway. To further assess the pivotal relation of the newly synthesised MCF-7/ADR anticancer compounds and apoptosis, phosphatidylserine (PS) translocation to the cell membrane as a marker for apoptosis was measured by the means of the Annexin V/PI double staining flow cytometric assay.
Apoptosis assay was performed with an Annexin V-FITC/PI double staining apoptosis detection kit (K101, Biovison, Milpitas, CA) using a flow cytometer. MCF-7/ADR cancer cells treated with different newly synthesised compounds (IC50 value) were harvested by trypsinization, washed twice with 4 °C PBS, and re-suspended in binding buffer. Annexin V-FITC and PI solutions were then added to stain the cells before analysis by flow cytometry A minimum of 10,000 cells per sample were acquired. Annexin V-FITC binding (FL1) and PI (FL2) were analysed using Cell Quest Pro software (BD Biosciences).

[10] = Homo sapiens, NCI/ADR-RES, 24 h

T1 sequence (P08183 whole entry): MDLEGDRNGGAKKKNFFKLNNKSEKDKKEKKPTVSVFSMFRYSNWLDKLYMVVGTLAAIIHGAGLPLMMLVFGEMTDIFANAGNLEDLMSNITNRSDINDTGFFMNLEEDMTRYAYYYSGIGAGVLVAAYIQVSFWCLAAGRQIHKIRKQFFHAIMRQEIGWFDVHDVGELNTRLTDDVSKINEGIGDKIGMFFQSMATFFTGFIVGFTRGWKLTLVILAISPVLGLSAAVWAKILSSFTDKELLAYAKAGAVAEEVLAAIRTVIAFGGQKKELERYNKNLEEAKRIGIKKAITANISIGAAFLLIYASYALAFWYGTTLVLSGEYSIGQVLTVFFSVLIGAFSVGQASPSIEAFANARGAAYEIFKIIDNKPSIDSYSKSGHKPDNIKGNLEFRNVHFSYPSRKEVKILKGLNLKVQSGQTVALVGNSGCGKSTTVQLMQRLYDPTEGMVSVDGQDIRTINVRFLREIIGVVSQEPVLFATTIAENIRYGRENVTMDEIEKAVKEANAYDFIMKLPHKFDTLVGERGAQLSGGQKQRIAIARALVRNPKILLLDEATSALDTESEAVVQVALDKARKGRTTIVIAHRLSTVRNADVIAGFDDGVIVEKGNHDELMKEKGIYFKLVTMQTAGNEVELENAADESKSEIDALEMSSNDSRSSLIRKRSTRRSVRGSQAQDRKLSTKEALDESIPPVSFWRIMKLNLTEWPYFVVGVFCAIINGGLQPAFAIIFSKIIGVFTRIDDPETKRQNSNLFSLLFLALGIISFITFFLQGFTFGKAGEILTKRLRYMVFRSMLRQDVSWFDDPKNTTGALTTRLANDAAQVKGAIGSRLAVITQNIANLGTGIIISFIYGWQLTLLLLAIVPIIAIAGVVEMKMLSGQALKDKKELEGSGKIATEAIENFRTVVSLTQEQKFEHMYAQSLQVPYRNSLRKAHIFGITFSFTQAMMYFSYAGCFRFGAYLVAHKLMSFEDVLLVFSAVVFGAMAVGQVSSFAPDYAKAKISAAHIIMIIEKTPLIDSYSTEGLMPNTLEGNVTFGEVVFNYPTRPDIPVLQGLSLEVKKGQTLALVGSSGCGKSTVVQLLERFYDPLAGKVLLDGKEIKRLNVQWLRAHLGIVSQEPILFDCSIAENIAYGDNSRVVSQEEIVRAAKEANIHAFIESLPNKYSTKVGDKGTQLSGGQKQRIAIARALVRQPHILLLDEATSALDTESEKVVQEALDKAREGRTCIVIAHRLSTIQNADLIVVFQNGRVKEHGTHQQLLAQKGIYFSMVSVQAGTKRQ

| SMILES | IC50 [1] | %Reduction of P-gp expression ([2]; Conc. 12.5 µM) | %Reduction of P-gp expression ([2]; Conc. 25 µM) | %Reduction of P-gp expression ([2]; Conc. 50 µM) | %Reduction of P-gp expression ([2]; Conc. 100 µM) | IC50 [2] | IC50 at 48 h [2] | IC50 [3] | IC50 [4] | IC50 [5] | IC50 [6] | IC50 [6, 10] | IC50 [7] | melting point | IC50 [8] | total apoptosis [9] |
| --- | --- | --- | --- | --- | --- | --- | --- | --- | --- | --- | --- | --- | --- | --- | --- | --- |
| COc1ccc2ccc3c(c2c1)C(c1ccccc1Cl)C(C#N)=C(N)O3 (centres unmarked) [4b, 3-Amino-1–(2-chlorophenyl)-9-methoxy-1H-benzo[f]chromene-2-carbonitrile] | 20.5 µM | 30% | 42% | 72% | 90% | 26.7 µM | 18.7 to 34.6 µM | 10.7 ± 0.5 µM | 71.9 ± 0.1 µM | 66.7 ± 0.2 µM | 13.3 ± 0.5 µM | 10.9 to 15.5 µM | 2.5 ± 0.2 µM | 266 to 267 °C | 11.3 ± 0.1 µM | – |
| COc1ccc2ccc3c(c2c1)C(c1cccc(Cl)c1)C(C#N)=C(N)O3 (centres unmarked) [4c, 3-Amino-1–(3-chlorophenyl)-9-methoxy-1H-benzo[f]chromene-2-carbonitrile] | 23 µM | 26% | 40% | 70% | 84% | 28.4 µM | 18.7 to 34.6 µM | 11 ± 0.2 µM | 59.5 ± 1.1 µM | 61.5 ± 1.2 µM | 10.9 ± 0.2 µM | 10.9 to 15.5 µM | 9.9 ± 0.1 µM | 262 to 263 °C | 8.5 ± 0.6 µM | – |
| COc1ccc2ccc3c(c2c1)C(c1ccc(Cl)cc1)C(C#N)=C(N)O3 (centres unmarked) [4d, 3-Amino-1–(4-chlorophenyl)-9-methoxy-1H-benzo[f]chromene-2-carbonitrile] | 10.6 µM | 45% | 60% | 81% | 91% | – | 13.5 µM | 7.2 ± 0.1 µM | 77.1 ± 1.1 µM | 83 ± 1.1 µM | 12.5 ± 0.3 µM | 10.9 to 15.5 µM | 1.9 ± 0.4 µM | 257 to 258 °C | 0.6 ± 0.2 µM | – |
| COc1ccc2ccc3c(c2c1)C(c1ccc(F)cc1F)C(C#N)=C(N)O3 (centres unmarked) [4k, 3-Amino-1–(2,4-difluorophenyl)-9-methoxy-1H-benzo[f]chromene-2-carbonitrile] | 57.8 µM | 12% | 28% | 45% | 70% | – | 61.4 µM | 8.2 ± 0.6 µM | 59.6 ± 0.1 µM | 47.3 ± 0.2 µM | 11.5 ± 0.6 µM | 10.9 to 15.5 µM | 4.1 ± 0.2 µM | 255 to 256 °C | 3 ± 0.3 µM | – |
| COc1ccc2ccc3c(c2c1)C(c1ccc(Cl)c(Cl)c1)C(C#N)=C(N)O3 (centres unmarked) [4q, 3-Amino-1–(3,4-dichlorophenyl)-9-methoxy-1H-benzo[f]chromene-2-carbonitrile] | 39.1 µM | 19% | 32% | 51% | 76% | – | 45.3 µM | 1.5 ± 0.1 µM | 75.8 ± 0.2 µM | 72.8 ± 0.4 µM | 13.4 ± 0.4 µM | 10.9 to 15.5 µM | 1.3 ± 0.1 µM | 255 to 256 °C | 2.3 ± 0.1 µM | – |
| COc1ccc2ccc3c(c2c1)C(c1ccc(OC)c(OC)c1)C(C#N)=C(N)O3 (centres unmarked) [4w, 3-Amino-1–(3,4-dimethoxyphenyl)-9-methoxy-1H-benzo[f]chromene-2-carbonitrile] | 25.6 µM | 24% | 36% | 68% | 79% | 32.4 µM | 18.7 to 34.6 µM | 52.3 ± 0.4 µM | 47.1 ± 0.2 µM | 52.9 ± 0.3 µM | 11.5 ± 0.6 µM | 10.9 to 15.5 µM | 6.2 ± 0.3 µM | 253 to 255 °C | 2.6 ± 0.5 µM | – |
| COc1cccc2c1C(=O)c1c(O)c3c(c(O)c1C2=O)C[C@@](O)(C(=O)CO)C[C@@H]3O[C@H]1C[C@H](N)[C@H](O)[C@H](C)O1 [Doxorubicin, reference compound] | – | – | – | – | – | – | 50.9 µM | 1.7 ± 0.4 µM | – | – | – | – | 0.9 ± 0.02 µM | – | 0.8 ± 0.01 µM | 30% |
